This is an account of results in patent publication US20040192720A1, “Novel heteroaryl alkylamide derivatives useful as bradykinin receptor modulators” (priority 2003, published 2004).

The target in test [1] is T1, human B2 bradykinin receptors (Homo sapiens, UniProt P30411).
T1 construct: purchased Receptor Biology, Inc. (Baltimore, Md.); host or cells: CHO-K1 cells transfected with human B2 receptor (membranes)
T1 sequence (P30411 1-391): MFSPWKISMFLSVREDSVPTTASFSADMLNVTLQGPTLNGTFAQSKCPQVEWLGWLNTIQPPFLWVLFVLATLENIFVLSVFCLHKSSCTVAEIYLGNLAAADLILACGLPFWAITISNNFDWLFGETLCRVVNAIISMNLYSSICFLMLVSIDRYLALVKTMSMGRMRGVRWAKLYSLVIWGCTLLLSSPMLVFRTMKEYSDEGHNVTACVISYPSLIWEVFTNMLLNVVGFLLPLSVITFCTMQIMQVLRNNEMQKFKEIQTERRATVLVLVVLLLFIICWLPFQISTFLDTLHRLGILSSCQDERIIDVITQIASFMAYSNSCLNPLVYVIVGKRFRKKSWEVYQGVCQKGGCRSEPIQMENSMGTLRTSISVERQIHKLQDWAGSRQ
Put plainly: Bradykinin B2 (BK2) Receptor Binding Assay. The following applies: CHO-K1 membranes transfected with human B2 receptor, ~0.25 nM [3H]NPC17731, 60 min 25° C. The protocol: Bradykinin B2 (BK2) Receptor Binding Assay
Cell membranes of CHO-K1 cells transfected with human B2 bradykinin receptors (CH)-hB2) were purchased from Receptor Biology, Inc. (Baltimore, Md.). 5.54 mg/mL of membrane protein suspended in 10 mM TRIS-HC pH 7.2, 2 mM EDTA, 10% sucrose.
Incubation for 60 min at 25° C. was performed in a total volume of 1 mL and contained, unless stated differently, 50 mM HEPES, pH 7.2, 5 mM MgCl2, 0.02 mg/mL 1.10-phenathroline (Sigma, P-9375), 0.25 mg/mL pefebloc SC (Boerhringer, 1429876), 30 μg/mL membrane protein and ˜0.25 nM [^3HNPC17731 (NEN, Boston). Samples were harvested on a Brandel Cell Harvester on to Wallac filtermat B sheets (96 sample format), and washed three times with 2 mL cold HEPES-buffer (10 mM, pH 7.5), and dried in a microwave oven. To each sample area 2×40 μL of Betaplate Scint scintillation fluid (LKB) was added and the radioactivity quantified on a LKB (Wallac) 1205 BetaPlate liquid scintillation counter.
The data were used to calculate either the % inhibition compared to control binding (when only a single concentration of test compound was evaluated) or a Ki value (when a range of concentrations were tested). Background was subtracted from mean cpm values and % inhibition was calculated as: [(total dpm-tpst compound dpm)/(total dpm-nonspecific dpm)]×100. Kd and Ki values were calculated using GraphPad PRISM data analysis program.

The target of test [2] is T2, human B2 bradykinin receptors (CHO-hB2 cell membranes) (Homo sapiens, UniProt P30411).
T2 construct: purchased Receptor Biology, Inc. (Baltimore, Md.); host or cells: CHO-hB2 cells (membranes)
T2 sequence (P30411 1-391): T1 sequence (P30411 1-391)
Put plainly: [35S]GTPγS Binding Assay in CHO-hB2 Cell Membranes. Format: biochemical. As to conditions: bradykinin-stimulated [35S]GTPγS binding; for Functional Activity (% Basal): number in parentheses, concentration not given. How it is done: [^35S]GTPγS Binding Assay in CHO-hB2Cell Membranes
CHO-hB2 cell membranes were purchased from Receptor Biology, Inc. (Baltimore, Md.). 10 mg/mL of membrane protein was suspended in 10 mM TRIS-HC pH 7.2, 2 mM EDTA, 10% sucrose.
Membranes were added into 15 mL ice cold binding assay buffer. The assay buffer contained 50 mM HEPES, pH 7.6, 5 mM MgCl2, 100 mM NaCl, 1 mM DTT and 1 mM EDTA. The membrane suspension was homogenized twice with a Polytron and centrifuged at 3000 rpm for 10 min. The supernatant was then centrifuged at 18,000 rpm for 20 min. The pellet was saved in a tube and resuspended.
The pellet membranes (40 μg/mL) were preincubated with SPA (scintillation proximity assay) beads (20 mg/mL) at 25 C. ° for 45 min in the assay buffer. The SPA beads (5 mg/mL) coupled with membranes (10 μg/mL) were then incubated with 0.5 nM [^35S]GTPγS in the same HEPES buffer containing 50 μM GDP in total volume of 200 μL. Bradykinin was used to stimulate [^35S]GTPγS binding. Varying concentrations of drugs were incubated with bradykinin to inhibit bradykinin-stimulated [^35S]GTPγS binding. The basal binding was tested in the absence of bradykinin and no specific binding was tested in the present 10 μM unlabeled GTPγS. The radioactivity was quantified on a Packard Top Count, and calculated.
% of Basal=(stimulated binding−non specific binding)/(basal binding−non specific binding)×100.
Background: Binding of GTPγS marks nucleotide exchange on a G protein.

For orientation: pKi means −log10 of the Ki, conventionally taken in molar units. High values mean a small Ki, low ones a large Ki.

pKi: −log10 of the molar value.

As to `Cc1ccc2cccc(OCc3c(Cl)ccc(NC(=O)Cc4ccc(C(=O)c5ccc(C#N)nc5)n4C)c3Cl)c2n1` [Compound 14], in test [1], the pKi is 5.17.

In the case of `Cc1ccc2cccc(OCc3c(Cl)ccc(NC(=O)Cc4ccc(C(=O)c5ccc(C#N)cc5)n4C)c3Cl)c2n1` [Compound 15], in test [2], the “Functional Activity (word result)” value was “Weak antagonist”. In test [1], this compound gave a pKi of 5.21.

For `Cc1ccc2cccc(OCc3c(C)ccc(N(C)C(=O)CCc4ccc(C(=O)c5cccs5)n4C)c3C)c2n1` [Compound 80], in test [2], the “Functional Activity (word result)” value is recorded as “Weak antagonist”.

On to `Cc1ccc2cccc(OCc3c(C)ccc(N(C)C(=O)CCc4ccc(C(=O)c5ccncc5)n4C)c3C)c2n1` [Compound 82], for which, in test [2], the “Functional Activity (word result)” value is on record as “Antagonist” and the “Functional Activity (% Basal)” value is 50 % Basal.

Turning to `Cc1ccc2cccc(OCc3c(C)ccc(N(C)C(=O)CCc4ccc(C(=O)c5cccnc5)n4C)c3C)c2n1` [Compound 84], in test [2], the “Functional Activity (word result)” value is “Antagonist”.

Consider `Cc1ccc2cccc(OCc3c(C)ccc(N(C)C(=O)CCc4ccc(C(=O)c5ccc(Cl)nc5)n4C)c3C)c2n1` [Compound 88], for which the “Functional Activity (word result)” value in test [2] is reported as “Antagonist”.

Consider `Cc1ccc2cccc(OCc3c(C)ccc(N(C)C(=O)CCc4ccc(C(=O)c5ccc(C#N)cc5)n4C)c3C)c2n1` [Compound 90], for which, in test [2], the “Functional Activity (word result)” value is on record as “Antagonist” and the “Functional Activity (% Basal)” value came to 50 % Basal.

For `Cc1ccc2cccc(OCc3c(C)ccc(N(C)C(=O)Cc4ccc(C(=O)c5ccccc5)s4)c3C)c2n1` [Compound 108, 2-(5-Benzoyl-thiophen-2-yl)-N-[2,4-dimethyl-3-(2-methyl-quinolin-8-yloxymethyl)-phenyl]-N-methyl-acetamide], the pKi in test [1] was 7.05.

For the compound `CC(=O)Nc1ccc(C=CC(=O)NC[C@H]2CCCN2c2ccc(C)c(COc3cccc4ccc(C)nc34)c2C)cn1` [Compound 112, 3-(6-Acetylamino-pyridin-3-yl)-N-{1-[2,4-dimethyl-3-(2-methyl-quinolin-8-yloxymethyl)-phenyl]-pyrrolidin-2-(R)-ylmethyl}-acrylamide.], in test [2], the “Functional Activity (word result)” value is reported as “Antagonist” and the “Functional Activity (% Basal)” value was determined as 59 % Basal.

In turn, `Cc1ccc2cccc(OCc3c(C)ccc(N4CCC[C@H]4CNC(=O)Cc4ccc(C(=O)c5ccc(C#N)cc5)n4C)c3C)c2n1` [Compound 113] gave a negative-log Ki (pKi) in test [1] of 5.10.

`Cc1ccc2cccc(OCc3c(C)ccc(N4CCC[C@H]4CNC(=O)CCc4ccc(C(=O)c5ccc(C#N)cc5)n4C)c3C)c2n1` [Compound 114] had a negative-log Ki (pKi) in test [1] of 6.26.

On to `Cc1ccc2cccc(OCc3c(Cl)cc(Cl)c(N(C)C(=O)Cc4ccc(C(=O)c5ccc(Cl)nc5)n4C)c3Cl)c2n1` [Compound 117, 2-[5-(6-Chloro-pyridine-3-carbonyl)-1-methyl-1H-pyrrol-2-yl]-N-methyl-N-[2,4,6-trichloro-3-(2-methyl-quinolin-8-yloxymethyl)-phenyl]-acetamide], for which, in test [2], the “Functional Activity (word result)” value is given as “Antagonist”.

In turn, “N-[2,4-Dimethyl-3-(2-methyl-quinolin-8-yloxymethyl)-phenyl]-3-[5-(4-methoxy-benzoyl)-1-methyl-1H-pyrrol-2-yl]-N-methyl-propionamide [Compound 106]” gave a pKi in test [1] of 6.43.
